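1) Cells in 96-well plates. 2) Compound, 48 h, 5 concentrations. 3) Linear interpolation between surrounding doses. 4) Unreached endpoint = highest concentration. TGI is the concentration that stops growth completely.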
Key:
Experiment in all cases: NCI tumour cell line growth inhibition, 48 h
SK-OV-3 ovarian = tested on: SK-OV-3 ovarian
SW-620 colon = tested on: SW-620 colon
SN12C renal = tested on: SN12C renal
HCT-15 colon = tested on: HCT-15 colon
OVCAR-4 ovarian = tested on: OVCAR-4 ovarian
SNB-78 CNS = tested on: SNB-78 CNS
EKVX NSCLC = tested on: EKVX NSCLC
DLD-1 colon = tested on: DLD-1 colon
HOP-18 NSCLC = tested on: HOP-18 NSCLC
LOX IMVI melanoma = tested on: LOX IMVI melanoma
ACHN renal = tested on: ACHN renal
COLO 205 colon = tested on: COLO 205 colon
NCI-H460 lung = tested on: NCI-H460 lung
NCI-H23 lung = tested on: NCI-H23 lung
HCT-116 colon = tested on: HCT-116 colon
CCRF-CEM leukemia = tested on: CCRF-CEM leukemia
RXF 393 renal = tested on: RXF 393 renal
TK-10 renal = tested on: TK-10 renal
SF-539 CNS = tested on: SF-539 CNS
CAKI-1 renal = tested on: CAKI-1 renal
HL-60(TB) leukemia = tested on: HL-60(TB) leukemia
SR leukemia = tested on: SR leukemia
UACC-257 melanoma = tested on: UACC-257 melanoma
HCC-2998 colon = tested on: HCC-2998 colon
KM12 colon = tested on: KM12 colon
SF-295 CNS = tested on: SF-295 CNS
UACC-62 melanoma = tested on: UACC-62 melanoma
IGROV1 ovarian = tested on: IGROV1 ovarian
SK-MEL-28 melanoma = tested on: SK-MEL-28 melanoma
NCI-H226 lung = tested on: NCI-H226 lung
KM20L2 colon = tested on: KM20L2 colon
HOP-92 NSCLC = tested on: HOP-92 NSCLC
786-0 renal = tested on: 786-0 renal
DMS 273 small cell lung = tested on: DMS 273 small cell lung
OVCAR-5 ovarian = tested on: OVCAR-5 ovarian
A549 NSCLC = tested on: A549 NSCLC
OVCAR-8 ovarian = tested on: OVCAR-8 ovarian
SNB-19 CNS = tested on: SNB-19 CNS
DMS 114 small cell lung = tested on: DMS 114 small cell lung
SK-MEL-2 melanoma = tested on: SK-MEL-2 melanoma
MOLT-4 leukemia = tested on: MOLT-4 leukemia
U251 CNS = tested on: U251 CNS
MALME-3M melanoma = tested on: MALME-3M melanoma
SF-268 CNS = tested on: SF-268 CNS
LXFL 529 NSCLC = tested on: LXFL 529 NSCLC
RXF-631 renal = tested on: RXF-631 renal
UO-31 renal = tested on: UO-31 renal
M19-MEL melanoma = tested on: M19-MEL melanoma
K-562 leukemia = tested on: K-562 leukemia
HT29 colon = tested on: HT29 colon
M14 melanoma = tested on: M14 melanoma
NCI-H522 lung = tested on: NCI-H522 lung
A498 renal = tested on: A498 renal
HOP-62 NSCLC = tested on: HOP-62 NSCLC

Measured: TGI

COc1ccc(NC(=O)CC/C(CC(=O)c2ccccc2Cl)=N\Nc2nnc(C)n2N)cc1
not listed: M14 melanoma | NCI-H522 lung | A498 renal | HOP-62 NSCLC
> 100 µM: all other assays above

c1ccc(-c2nc3sccn3n2)cc1
not listed: SW-620 colon | SN12C renal | HCT-15 colon | OVCAR-4 ovarian | SNB-78 CNS | DLD-1 colon | HOP-18 NSCLC | LOX IMVI melanoma | COLO 205 colon | SF-539 CNS | CAKI-1 renal | HCC-2998 colon | NCI-H226 lung | KM20L2 colon | 786-0 renal | SK-MEL-2 melanoma | MALME-3M melanoma | LXFL 529 NSCLC
> 100 µM: all other assays above

Reference: PubChem BioAssay (NCI)
